Values after ≈ are worked out from the molar mass of the structure shown. Read-outs that look alike come from different tables or passages of the source.
Assays:
[1] = system: E. coli strain ATCC25922; assay: MIC, broth microdilution antimicrobial susceptibility test (CLSI); assay type: cell-based; conditions: E. coli ATCC 25922, growth inhibited by ≥90%, 18 h; for MIC: Escherichia coli, ATCC25922, read-out: MIC^c: Minimum inhibitory concentration against E. coli
Text: (§1) This example illustrates the evaluation of 2,4,6-trisubstituted pyrimidines 14 for their antimicrobial activities against the Gram positive S. aureus strain ATCC29213 and the Gram negative E. coli strain ATCC25922 by measuring their MIC, which is the lowest concentration of an antimicrobial agent that prevents visible growth of a microorganism in a broth dilution susceptibility test according to the standard method approved by the Clinical and Laboratory Standards Institute (CLSI) guidelines.^21
(§2) Procedure of Antimicrobial susceptibility test: The MIC value of compounds was measured in the antimicrobial susceptibility test using the broth microdilution procedure in accordance with the CLSI guidelines.^21 Cation-adjusted Mueller Hinton broth (CA-MHB) was used for all the S. aureus strains in the assay. Cells in exponential phase of growth were diluted to approximately 5×10^5 cfu/mL. Stock solutions of each compound were freshly dissolved in dimethyl sulfoxide (DMSO). Then, serial dilutions of each compound in CA-MHB medium were added into 96-well microplate. The final percentage of DMSO in the assay was 1%. Control experiments were performed with 1% DMSO instead of the compound solution. After being incubated at 37° C. for 18 h, OD600 value of cells was measured on a microplate reader and the percentage of bacterial cell inhibition with respect to controls was calculated. The MIC value was defined as the lowest compound concentration at which the growth of bacteria was inhibited by ≥90%. Three independent assays were performed for each compound.

[2] = system: S. aureus strain ATCC29213; assay: as above; assay type: cell-based; conditions: for MIC^c/MIC^b: Selectivity index: E. coli ATCC 25922 MIC over S. aureus 29213 MIC; for MIC: Staphylococcus aureus; for antibacterial activity in words (SAR analysis): MIC screening, S. aureus
Text: as §1, §2

[3] = ATCC29213, S. aureus 29213, growth inhibited by ≥90%, 18 h, read-out: MIC^b: Minimum inhibitory concentration against S. aureus
[4] = S. aureus ATCC29213, read-out: MIC against S. aureus
[5] = S. aureus 29213, growth inhibited by ≥90%, 18 h

Row | Compound | MIC [1] [µM] | MIC [2, 3] [µM] | MIC [2, 4] [µM] | MIC^c: Minimum inhibitory concentration against E. coli [1] [µM] | MIC^b: Minimum inhibitory concentration against S. aureus [2, 5] [µM] | MIC^c/MIC^b: Selectivity index [2] | antibacterial activity in words (SAR analysis) [2]
1 | CCC(CC)c1cc(CCN2CCCN(Cc3ccc(C(C)(C)C)cc3)CC2)nc(-c2ccncc2)n1 [Compound 14av_amine07] |  |  |  | >125 | 16 (≈ 8 µg/mL) | >7 | 
2 | CCC(CC)c1cc(CCN2CCCN(Cc3ccc(C(F)(F)F)cc3)CC2)nc(-c2ccccc2)n1 [Compound 14ax_amine16] |  |  |  |  |  |  | weak antibacterial activity
3 | CCC(CC)c1cc(CCN2CCCN(Cc3ccc(C(F)(F)F)cc3)CC2)nc(-c2ccccn2)n1 [Compound 14az_amine16] |  |  |  |  |  |  | weak antibacterial activity
4 | CC(C)c1cc(CCN2CCCN(Cc3ccc(C(F)(F)F)cc3)CC2)nc(-c2ccncc2)n1 [Compound 14bv_amine16] |  |  |  |  |  |  | poor antibacterial activity
5 | CCC(CC)c1cc(CCN2CCCN(Cc3ccc(C(C)C)cc3)CC2)nc(-c2ccncc2)n1 [Compound 14av_amine06] |  |  |  | >125 | 16 (≈ 7.77 µg/mL) | >7 | 
6 | CCC(CC)c1cc(CCN2CCCN(C(=O)c3ccc(C(F)(F)F)cc3)CC2)nc(-c2ccncc2)n1 [Compound 14av_amine19] |  |  |  |  |  |  | poor antibacterial activity
7 | CCC(CC)c1cc(CCN2CCCN(Cc3ccc(C(F)(F)F)cc3)CC2)nc(C)n1 [Compound 14aw_amine16] |  |  |  |  |  |  | weak antibacterial activity
8 | CCC(CC)c1cc(CCN2CCCN(Cc3ccc(C(F)(F)F)cc3)CC2)nc(-c2cccnc2)n1 [Compound 14ay_amine16] |  |  |  |  |  |  | weak antibacterial activity

Now from value to molecule, other results behind:

Row | MIC [1] [µM] | MIC [2, 3] [µM] | MIC [2, 4] [µM] | MIC^c: Minimum inhibitory concentration against E. coli [1] [µM] | MIC^b: Minimum inhibitory concentration against S. aureus [2, 5] [µM] | Compound | MIC^c/MIC^b: Selectivity index [2] | antibacterial activity in words (SAR analysis) [2]
9 | > 125 | 5 (≈ 2.53 µg/mL) | 5 to 8 (≈ 2.53 to 4.05 µg/mL) |  |  | CC(C)(C)c1ccc(CN2CCCN(CCc3cc(-c4ccccc4)nc(-c4ccncc4)n3)CC2)cc1 [Compound 14dv_amine07, 1-(4-(tert-butyl)benzyl)-4-(2-(6-phenyl-2-(pyridin-4-yl)pyrimidin-4-yl)ethyl)-1,4-diazepane] | >25 | 
10 |  |  |  | >125 | 10 (≈ 5.12 µg/mL) | CCCCCc1cc(CCN2CCCN(Cc3ccc(C(F)(F)F)cc3)CC2)nc(-c2ccncc2)n1 [Compound 14cv_amine16] | >12 | poor antibacterial activity
11 |  |  |  | >125 | 10 (≈ 4.86 µg/mL) | CCCCCc1cc(CCN2CCCN(Cc3ccc(C(C)C)cc3)CC2)nc(-c2ccncc2)n1 [Compound 14cv_amine06] | >12 | 
12 |  |  |  | >125 | 13 (≈ 6.22 µg/mL) | CCC(CC)c1cc(CCN2CCCN(Cc3ccc(Cl)cc3)CC2)nc(-c2ccncc2)n1 [Compound 14av_amine13] | >9 | 
13 |  |  |  | >125 | 12 (≈ 5.97 µg/mL) | CCC(CC)c1cc(CCN2CCN(Cc3ccc(C(F)(F)F)cc3)CC2)nc(-c2ccncc2)n1 [Compound 14av_amine24] | >10 | poor antibacterial activity
14 |  |  |  | >125 | 10 (≈ 4.86 µg/mL) | Fc1ccc(CN2CCCN(CCc3cc(-c4ccccc4)nc(-c4ccncc4)n3)CC2)cc1F [Compound 14dv_amine12] | >12 | 
15 |  |  |  | >125 | 10 (≈ 4.98 µg/mL) | CCC(CC)c1cc(CCN2CCN(Cc3cccc(C(F)(F)F)c3)CC2)nc(-c2ccncc2)n1 [Compound 14av_amine28] | >12 | 
16 | > 125 | 5 (≈ 2.64 µg/mL) | 5 to 8 (≈ 2.64 to 4.23 µg/mL) |  |  | Brc1ccc(CN2CCCN(CCc3cc(-c4ccccc4)nc(-c4ccncc4)n3)CC2)cc1 [Compound 14dv_amine08, 1-(4-bromobenzyl)-4-(2-(6-phenyl-2-(pyridin-4-yl)pyrimidin-4-yl)ethyl)-1,4-diazepane] | >25 | 

Reference: US9951039B2, “Pyrimidines for treatment of bacterial infections” (The Hong Kong Polytechnic University, priority 2016, dated 2018)
